Assay results: article PMC12446003, “Pharmacological characterization of linaprazan glurate (X842), a novel potassium-competitive acid blocker, in vitro and in vivo” (Frontiers in Pharmacology, 2025)
Like-named read-outs stand apart in the source and are kept apart here.

How the values were obtained:
[1] = Pharmacokinetic assessment of X842 in rats (IV, single oral, repeated oral); assay type: in vivo, Sprague-Dawley rats; conditions: for Cmax / AUC(0-t) / half-life: Sprague-Dawley, rat, plasma; for AUC(0-t): read-out: AUC(0–24h)
Protocol: Male and female Sprague-Dawley rats weighing approximately 150 g were housed individually with a 12-h light/dark cycle. Food and water were provided ad libitum, except during overnight fasting (10–16 h) prior to oral drug administration, as described previously ([Kotegawa et al., 1998]; [Kotegawa et al., 2002]). To investigate the absorption kinetics of X842 (prodrug) and linaprazan (metabolite, parent drug) in rats after oral and intravenous administration of X842, X842 were dissolved in 5% Solutol HS15/45% ethanol/10% PEG400/40% saline, and methane sulfonic acid was used to adjust to pH 3, yielding solutions with concentrations of 0.6 mg/mL, 2.4 mg/mL, and 9.6 mg/mL for oral administration. For intravenous (IV) injection, a drug solution (0.6 mg/mL) was prepared and filtered through a 0.22-μm filter. Blood samples were collected via the jugular vein of conscious rats (without intubation, narcotics, or antibiotics) prior to dosing and at 0.083, 0.25, 0.5, 1, 2, 4, 6, 8, and 24 h after dosing. Blood samples were placed into tubes containing sodium heparin and centrifuged at 3,500 rpm for 10 min at 4 °C. Following centrifugation, the plasma was transferred to clean tubes and stored at −80 °C until further analysis. All animals were euthanized by carbon dioxide (CO2) inhalation after the final blood sample collection.
(§1) Pharmacokinetic assessments were conducted by Shanghai Medicilon Inc. Using C18 solid-phase extraction (Shimadzu UFLC-20A, ACE 3, C18, 3.0 µm, 150 × 4.6 mm; Shimadzu, Japan) with the following conditions: mobile phase A: 1 M ammonium acetate in water, mobile phase B: 100% acetonitrile; gradient 0–5 min: 100% A, 5–30 min: 85% A, 35–63 min: 75% A, 63–65 min: 55% A, 65–70 min: 0% A, 72–87 min: 100% A; flow rate 0.7 mL/min; column temperature 30 °C ([Weidof and Covey, 1992]). […] Bioavailability was calculated as F (%) = (Doseiv × AUCpo(0–24h)) ÷ (Dosepo × AUCiv (0–24h)) × 100%, where “po” represents oral administration and “iv” represents intravenous administration.

[2] = Pharmacokinetic assessment of X842 in dogs (IV, single oral, repeated oral); assay type: in vivo; conditions: beagle, dog, plasma; for half-life at 1 day: read-out: t1/2 Day 1 (converted); for half-life at 7 day: read-out: t1/2 Day 7 (converted)
Protocol: as §1
Male and female Beagle dogs weighing around 9 kg were arbitrarily selected for testing. Food and water were provided ad libitum, except during overnight fasting (15–16 h) prior to oral drug administration ([Adebowale et al., 2002]). X842 were dissolved in the PEG400/ethanol/Solutol/water mixture (40:10:5:45% v/v) and methane sulfonic acid was used to adjust to pH 3, yielding solutions with concentrations of 0.3 mg/mL, 1.2 mg/mL, and 4.8 mg/mL for oral administration. There were four rounds of drug administration. One week was required between the rounds of testing according to the conditions for of animal welfare maintenance. For IV injection, a drug solution with a concentration of 0.3 mg/mL was prepared and filtered through a 0.22-μm filter. Blood samples were collected via the jugular vein using the same procedures as were used for the rat experiments. Following centrifugation, the plasma was transferred to clean tubes and stored at −80 °C until further analysis. All animals were euthanized by phenobarbital injection after the final blood sample collection. Pharmacokinetic assessments were conducted as described in 2.2.1.

[3] = female, iv, 0.6 mg/kg, female rats, intravenous X842, plasma analyte as labelled
[4] = female, po, 0.6 mg/kg, female rats, single oral X842 0.6 mg/kg, analyte as labelled
[5] = female, po, 2.4 mg/kg, female rats, single oral X842 2.4 mg/kg, analyte as labelled
[6] = female, po, 2.4 mg/kg, female rats, single oral X842, 2.4 mg/kg (third dose group)
[7] = male, iv, 0.6 mg/kg, male rats, intravenous X842, plasma analyte as labelled
[8] = male, po, 0.6 mg/kg, male rats, single oral X842 0.6 mg/kg, analyte as labelled
[9] = male, po, 2.4 mg/kg, male rats, single oral X842 2.4 mg/kg, analyte as labelled
[10] = male, po, 2.4 mg/kg, male rats, single oral X842, 2.4 mg/kg (third dose group)
[11] = 1.2 mg/kg, female dogs, repeat oral X842, Day 1, analyte as labelled
[12] = 1.2 mg/kg, female dogs, repeat oral X842, Day 7, analyte as labelled

Cc1cccc(C)c1CNc1cc(C(=O)NCCOC(=O)CCCC(=O)O)cn2c(C)c(C)nc12 [X842, linaprazan glurate]
Cmax [1, 3]: 606 ± 284 ng/mL | AUC(0-t) [1, 3]: 218 ± 101 ng·h/mL | half-life ([1]; female, iv, 0.6 mg/kg, female rats, intravenous X842, plasma analyte as labelled, read-out: t1/2 (converted)): 24 ± 1.8 min | Cmax [1, 4]: 8.7 ± 4.9 ng/mL | AUC(0-t) [1, 4]: 13.8 ± 13.1 ng·h/mL | half-life ([1]; female, po, 0.6 mg/kg, female rats, single oral X842 0.6 mg/kg, analyte as labelled, read-out: t1/2 (converted)): 168 min | Cmax [1, 5]: 42.6 ± 17.4 ng/mL | AUC(0-t) [1, 5]: 85.6 ± 45.6 ng·h/mL | half-life ([1]; female, po, 2.4 mg/kg, female rats, single oral X842 2.4 mg/kg, analyte as labelled, read-out: t1/2 (converted)): 246 ± 72 min | Cmax [1, 6]: 164 ± 124 ng/mL | AUC(0-t) [1, 6]: 310 ± 256 ng·h/mL | half-life ([1]; female, po, 2.4 mg/kg, female rats, single oral X842, 2.4 mg/kg (third dose group), read-out: t1/2 (converted)): 126 ± 18 min | half-life ([1]; female, po, female rats, single-dose oral administration, read-out: t1/2 (range over doses)): 126 to 246 min | Cmax [1, 7]: 448 ± 120 ng/mL | half-life ([1]; male, iv, 0.6 mg/kg, male rats, intravenous X842, plasma analyte as labelled (prodrug X842 / parent linaprazan), read-out: t1/2 (converted)): 24 ± 6 min | AUC(0-t) [1, 7]: 146 ± 38 ng·h/mL | Cmax [1, 8]: 2.5 ± 1.8 ng/mL | AUC(0-t) [1, 8]: 2.5 ± 2.6 ng·h/mL | Cmax [1, 9]: 14.6 ± 10.1 ng/mL | AUC(0-t) [1, 9]: 18.3 ± 10 ng·h/mL | half-life ([1]; male, po, 2.4 mg/kg, male rats, single oral X842 2.4 mg/kg, analyte as labelled, read-out: t1/2 (converted)): 156 min | Cmax [1, 10]: 49.7 ± 35.4 ng/mL | AUC(0-t) [1, 10]: 11.6 ± 77.5 ng·h/mL | half-life ([1]; male, po, 2.4 mg/kg, male rats, single oral X842, 2.4 mg/kg (third dose group), read-out: t1/2 (converted)): 121 ± 10.8 min | half-life ([1]; male, po, male rats, single-dose oral administration, read-out: t1/2 (range over doses)): 120 to 162 min | Plasma concentration after IV administration ([1]; within 0.5 h after IV administration, male and female rats): barely detectable | Cmax at 1 day [2, 11]: 138 ± 7.6 ng/mL | half-life at 1 day [2, 11]: 66 ± 12 min | Cmax at 7 day [2, 12]: 47.2 ± 10.6 ng/mL | half-life at 7 day [2, 12]: 120 ± 72 min | half-life at 1 day ([2]; 1.2 mg/kg, male dogs, 7 days of repeat oral X842, Day 1, analyte as labelled): 121 ± 43.8 min | half-life at 7 day ([2]; 1.2 mg/kg, male dogs, 7 days of repeat oral X842, Day 7, analyte as labelled): 516 ± 648 min | Cmax at 1 day ([2]; 1.2 mg/kg, male dogs, repeat oral X842, Day 1, analyte as labelled): 26.3 ± 21.6 ng/mL | Cmax at 7 day ([2]; 1.2 mg/kg, male dogs, repeat oral X842, Day 7, analyte as labelled): 15.6 ± 10.4 ng/mL | Cmax ([2]; female dogs, intravenous X842 0.3 mg/kg, analyte as labelled): 694 ± 225 ng/mL | half-life ([2]; female dogs, intravenous X842 0.3 mg/kg, analyte as labelled, read-out: t1/2 (converted)): 42 ± 6 min | Cmax ([2]; female dogs, single oral X842 0.3 mg/kg, analyte as labelled): 6.1 ng/mL | Cmax ([2]; female dogs, single oral X842 1.2 mg/kg, analyte as labelled): 37.5 ± 7.6 ng/mL | half-life ([2]; female dogs, single oral X842 1.2 mg/kg, analyte as labelled, read-out: t1/2 (converted)): 72 ± 12 min | Cmax ([2]; female dogs, single oral X842 4.8 mg/kg, analyte as labelled): 271 ng/mL | half-life ([2]; female dogs, single oral X842 4.8 mg/kg, analyte as labelled, read-out: t1/2 (converted)): 162 ± 132 min | half-life ([2]; female dogs, single oral dose, read-out: t1/2 (range over doses)): 126 to 192 min | Cmax ([2]; male dogs, intravenous X842 0.3 mg/kg, analyte as labelled): 745 ± 157 ng/mL | half-life ([2]; male dogs, intravenous X842 0.3 mg/kg, analyte as labelled, read-out: t1/2 (converted)): 30 ± 6 min | Cmax ([2]; male dogs, single oral X842 0.3 mg/kg, analyte as labelled): 5.3 ± 4 ng/mL | Cmax ([2]; male dogs, single oral X842 1.2 mg/kg, analyte as labelled): 26.3 ng/mL | half-life ([2]; male dogs, single oral X842 1.2 mg/kg, analyte as labelled, read-out: t1/2 (converted)): 120 ± 42 min | Cmax ([2]; male dogs, single oral X842 4.8 mg/kg, analyte as labelled): 355 ng/mL | half-life ([2]; male dogs, single oral X842 4.8 mg/kg, analyte as labelled, read-out: t1/2 (converted)): 204 ± 132 min | half-life ([2]; male dogs, single oral dose, read-out: t1/2 (range over doses)): 120 to 204 min | half-life ([2]; both sexes, 0.3 mg/kg, dogs, IV administration, similar between the sexes, read-out: t1/2 (converted)): ~36 min | AUC(0-t) ([2]; female, iv, 0.3 mg/kg, female dogs, intravenous X842 0.3 mg/kg, analyte as labelled, read-out: AUC(0-24h)): 343 ± 125 ng·h/mL | AUC(0-t) ([2]; female, po, 0.3 mg/kg, female dogs, single oral X842 0.3 mg/kg, analyte as labelled, read-out: AUC(0-24h)): 5.1 ± 3.3 ng·h/mL | AUC(0-t) ([2]; female, po, 1.2 mg/kg, female dogs, repeat oral X842, Day 1, analyte as labelled, read-out: AUC(0-24h) Day 1): 72.3 ± 18.3 ng·h/mL | AUC(0-t) ([2]; female, po, 1.2 mg/kg, female dogs, repeat oral X842, Day 7, analyte as labelled, read-out: AUC(0-24h) Day 7): 69.4 ± 54.1 ng·h/mL | AUC(0-t) ([2]; female, po, 1.2 mg/kg, female dogs, single oral X842 1.2 mg/kg, analyte as labelled, read-out: AUC(0-24h)): 72.3 ng·h/mL | AUC(0-t) ([2]; female, po, 4.8 mg/kg, female dogs, single oral X842 4.8 mg/kg, analyte as labelled, read-out: AUC(0-24h)): 504 ng·h/mL | AUC(0-t) ([2]; male, iv, 0.3 mg/kg, male dogs, intravenous X842 0.3 mg/kg, analyte as labelled, read-out: AUC(0-24h)): 361 ± 118 ng·h/mL | AUC(0-t) ([2]; male, po, 0.3 mg/kg, male dogs, single oral X842 0.3 mg/kg, analyte as labelled, read-out: AUC(0-24h)): 5.2 ± 2.3 ng·h/mL | AUC(0-t) ([2]; male, po, 1.2 mg/kg, male dogs, repeat oral X842, Day 1, analyte as labelled, read-out: AUC(0-24h) Day 1): 65.1 ± 51.2 ng·h/mL | AUC(0-t) ([2]; male, po, 1.2 mg/kg, male dogs, repeat oral X842, Day 7, analyte as labelled, read-out: AUC(0-24h) Day 7): 35.4 ± 8.7 ng·h/mL | AUC(0-t) ([2]; male, po, 1.2 mg/kg, male dogs, single oral X842 1.2 mg/kg, analyte as labelled, read-out: AUC(0-24h)): 65.1 ng·h/mL | AUC(0-t) ([2]; male, po, 4.8 mg/kg, male dogs, single oral X842 4.8 mg/kg, analyte as labelled, read-out: AUC(0-24h)): 889 ng·h/mL
